According to patent publication US10328077B2 (CELGENE CORPORATION, priority 2016, dated 2019):

Legend:
[1] = system: CD11b expression in THP-1 (AML) cells; test: LSD-1 CD11b cellular assay (flow cytometry); details: Homo sapiens, THP-1, 96 h, read-out: THP-1 IC50
Experimental: To analyze LSD-1 inhibitor efficacy in cells, a CD11b flow cytometry assay was performed. […] LSD-1 test compounds were serially diluted in DMSO. The dilutions were added to each well accordingly to a final concentration of 0.2% DMSO. The cells were incubated at 37 degrees Celsius in 5% CO2 for 4 days. 250 μL of each well was transferred to a well in a 96 well round bottom plate. The plate was centrifuged at 1200 rpm at 4 degrees Celsius in a Beckman Coulter Alegra 6KR centrifuge for 5 minutes. The media was removed leaving the cells at the bottom of the wells. The cells were washed in 100 μL cold HBSS (Hank's Balanced Salt Solution) plus 2% BSA (Bovine Serum Albumin) solution and centrifuged at 1200 rpm at 4 degrees Celsius for 5 minutes. The wash was removed. […] The cells were centrifuged and washed two times in 100 μl HBSS plus 2% BSA. After the final spin the cells were resuspended in 100 μL HBSS plus 2% BSA containing 1 μg/mL DAPI (4′,6-diamidino-2-phenylindole). The cells were then analyzed by flow cytometry in a BD FACSAria machine. Cells were analyzed for CD11b expression. The percent of CD11b expressing cells for each inhibitor concentration was used to determine an IC50 curve for each compound analyzed.

human LSD-1 = human LSD-1 (Homo sapiens (Human), UniProt O60341); test: In vitro enzyme inhibition assay LSD-1 (TR-FRET); type: biochemical; details: TR-FRET, H3K4me1-biotin labeled peptide
Excerpt: This assay determines the ability of a test compound to inhibit LSD-1 demethylase activity.
The enzymatic assay of LSD-1 activity is based on Time Resolved-Fluorescence Resonance Energy Transfer (TR-FRET) detection.

| SMILES | IC50 [1] | IC50 (human LSD-1) |
| --- | --- | --- |
| COc1ccc(-c2c(-c3ccc(C#N)c(F)c3)nc(N3CCCNCC3)n(C)c2=O)cc1F [Example 46, 4-[2-[1,4]diazepan-1-yl-5-(3-fluoro-4-methoxy-phenyl)-1-methyl-6-oxo-1,6-dihydro-pyrimidin-4-yl]-2-fluoro-benzonitrile] | < 100 nM | < 100 nM |
| CN(C)C1CCN(c2nc(-c3ccc(C#N)c(F)c3)c(-c3ccc4cn(C)nc4c3)c(=O)n2C)CC1 [Example 80, 4-[2-(4-dimethylamino-piperidin-1-yl)-1-methyl-5-(2-methyl-2H-indazol-6-yl)-6-oxo-1,6-dihydro-pyrimidin-4-yl]-2-fluoro-benzonitrile] | < 100 nM | < 100 nM |
| CNc1ccc(-c2c(-c3ccc(C#N)c(F)c3)nc(N3CCC(N)CC3)n(C)c2=O)cc1F [Example 91, 4-[2-(4-aminopiperidin-1-yl)-5-[3-fluoro-4-(methylamino)phenyl]-1-methyl-6-oxopyrimidin-4-yl]-2-fluorobenzonitrile] | < 100 nM | < 100 nM |
| Cn1c(N2CCC(N)CC2)nc(-c2ccc(C#N)c(F)c2)c(-c2ccc3[nH]ccc3c2)c1=O [Example 73, 4-[2-(4-amino-piperidin-1-yl)-5-(1H-indol-5-yl)-1-methyl-6-oxo-1,6-dihydro-pyrimidin-4-yl]-2-fluoro-benzonitrile] | < 100 nM | < 100 nM |
| Cn1c(N2CCC(N)CC2)nc(-c2ccc(C#N)c(F)c2)c(-c2ccc(F)c(F)c2)c1=O [Example 104, 4-[2-(4-aminopiperidin-1-yl)-5-(3,4-difluorophenyl)-1-methyl-6-oxopyrimidin-4-yl]-2-fluorobenzonitrile] | < 100 nM | < 100 nM |
| COc1ccc(-c2c(-c3ccc(C#N)c(F)c3)nc(N3CCC4(CCNC4)CC3)n(C)c2=O)cc1F [Example 22, 4-[2-(2,8-diaza-spiro[4.5]dec-8-yl)-5-(3-fluoro-4-methoxy-phenyl)-1-methyl-6-oxo-1,6-dihydro-pyrimidin-4-yl]-2-fluorobenzonitrile] | < 100 nM | < 100 nM |
| COc1ccc(-c2c(-c3ccc(C#N)c(F)c3)nc(N3CC[C@@H](N)[C@@H](F)C3)n(C)c2=O)cc1 [Example 78, 4-[2-((4R, 3S)-4-amino-3-fluoro-piperidin-1-yl)-5-(4-methoxy-phenyl)-1-methyl-6-oxo-1,6-dihydro-pyrimidin-4-yl]-2-fluoro-benzonitrile] | < 100 nM | < 100 nM |
| Cn1c(N2CCC(N)CC2)nc(-c2ccc(C#N)c(F)c2)c(-c2cccc(F)c2)c1=O [Example 102, 4-[2-(4-aminopiperidin-1-yl)-5-(3-fluorophenyl)-1-methyl-6-oxopyrimidin-4-yl]-2-fluorobenzonitrile] | < 100 nM | < 100 nM |
| COc1ccc(-c2c(-c3ccc(C#N)c(F)c3)nc(N3CC[C@H](N)C3)n(C)c2=O)cc1F [Example 29, 4-[2-((3S)-3-amino-pyrrolidin-1-yl)-5-(3-fluoro-4-methoxy-phenyl)-1-methyl-6-oxo-1,6-dihydro-pyrimidin-4-yl]-2-fluoro-benzonitrile] | 100 to 1000 nM | < 100 nM |
| CNc1ccc(-c2c(-c3ccc(C#N)c(F)c3)nc(N3CCC(N)CC3)n(C)c2=O)cc1 [Example 90, 4-[2-(4-aminopiperidin-1-yl)-1-methyl-5-[4-(methylamino)phenyl]-6-oxopyrimidin-4-yl]-2-fluorobenzonitrile] | < 100 nM | < 100 nM |
| CCOc1ncc(-c2c(-c3ccc(C#N)c(F)c3)nc(N3CCC(N)CC3)n(C)c2=O)cc1F [Example 93, 4-[2-(4-aminopiperidin-1-yl)-5-(6-ethoxy-5-fluoropyridin-3-yl)-1-methyl-6-oxopyrimidin-4-yl]-2-fluorobenzonitrile] | < 100 nM | < 100 nM |
| Cn1c(N2CCC(N)CC2)nc(-c2ccc(C#N)c(F)c2)c(-c2ccc(S(C)(=O)=O)cc2)c1=O [Example 105, 4-[2-(4-aminopiperidin-1-yl)-1-methyl-5-(4-methylsulfonylphenyl)-6-oxopyrimidin-4-yl]-2-fluorobenzonitrile] | < 100 nM | < 100 nM |
| CN(C)C1CCN(c2nc(-c3ccc(C#N)c(F)c3)c(-c3ccc4c(cnn4C)c3)c(=O)n2C)CC1 [Example 72, 4-[2-(4-dimethylamino-piperidin-1-yl)-1-methyl-5-(1-methyl-1H-indazol-5-yl)-6-oxo-1,6-dihydro-pyrimidin-4-yl]-2-fluoro-benzonitrile] | < 100 nM | < 100 nM |
| CN(C)c1ccc(-c2c(-c3ccc(C#N)c(F)c3)nc(N3CCC(N)CC3)n(C)c2=O)cc1 [Example 59, 4-[2-(4-amino-piperidin-1-yl)-5-(4-dimethylamino-phenyl)-1-methyl-6-oxo-1,6-dihydro-pyrimidin-4-yl]-2-fluoro-benzonitrile] | < 100 nM | < 100 nM |
| Cn1c(N2CCC(N)CC2)nc(-c2ccc(C#N)c(F)c2)c(-c2ccc(N)cc2)c1=O [Example 89, 4-[5-(4-aminophenyl)-2-(4-aminopiperidin-1-yl)-1-methyl-6-oxopyrimidin-4-yl]-2-fluorobenzonitrile] | < 100 nM | < 100 nM |
| CN(C)c1ccc(-c2c(-c3ccc(C#N)cc3)nc(N3CCCNCC3)n(C)c2=O)cn1 [Example 67, 4-[2-[1,4]diazepan-1-yl-5-(6-dimethylamino-pyridin-3-yl)-1-methyl-6-oxo-1,6-dihydro-pyrimidin-4-yl]-benzonitrile] | < 100 nM | < 100 nM |
| Cn1c(N2CCC(N)CC2)nc(-c2ccc(C#N)c(F)c2)c(-c2ccc(CO)cc2)c1=O [Example 100, 4-[2-(4-aminopiperidin-1-yl)-5-[4-(hydroxymethyl)phenyl]-1-methyl-6-oxopyrimidin-4-yl]-2-fluorobenzonitrile] | < 100 nM | < 100 nM |
| CNC1CCN(c2nc(-c3ccc(C#N)c(F)c3)c(-c3ccc4c(cnn4C)c3)c(=O)n2C)CC1 [Example 87, 2-fluoro-4-[1-methyl-2-[4-(methylamino)piperidin-1-yl]-5-(1-methylindazol-5-yl)-6-oxopyrimidin-4-yl] benzonitrile] | < 100 nM | < 100 nM |
| Cn1c(N2CCC(N)CC2)nc(-c2ccc(C#N)c(F)c2)c(-c2ccc3ccn(C)c3c2)c1=O [Example 76, 4-[2-(4-amino-piperidin-1-yl)-1-methyl-5-(1-methyl-1H-indol-6-yl)-6-oxo-1,6-dihydro-pyrimidin-4-yl]-2-fluoro-benzonitrile] | < 100 nM | < 100 nM |
| Cn1c(N2CCC(N)CC2)nc(-c2ccc(C#N)cc2)c(-c2ccc(C(N)=O)c(F)c2)c1=O [Example 41, 4-[2-(4-aminopiperidyl)-6-(4-cyanophenyl)-3-methyl-4-oxo(3-hydropyrimidin-5-yl)]-2-fluorobenzamide] | 100 to 1000 nM | < 100 nM |
| COc1ccc(-c2c(-c3ccc(C#N)c(F)c3)nc(NC[C@@H]3CCNC3)n(C)c2=O)cc1 [Example 52, 2-fluoro-4-{5-(4-methoxy-phenyl)-1-methyl-6-oxo-2-[(3R)-(pyrrolidin-3-ylmethyl)-amino]-1,6-dihydro-pyrimidin-4-yl}-benzonitrile] | 100 to 1000 nM | < 100 nM |
| CNC1CCN(c2nc(-c3ccc(C#N)c(F)c3)c(-c3ccc(OC)c(F)c3)c(=O)n2C)CC1 [Example 12, 2-fluoro-4-[5-(3-fluoro-4-methoxy-phenyl)-1-methyl-2-(4-methylamino-piperidin-1-yl)-6-oxo-1,6-dihydro-pyrimidin-4-yl]-benzonitrile] | < 100 nM | < 100 nM |
| COc1ccc(-c2c(-c3ccc(C#N)c(F)c3)nc(N3CC(N)C3)n(C)c2=O)cc1 [Example 64, 4-[2-(3-amino-azetidin-1-yl)-5-(4-methoxy-phenyl)-1-methyl-6-oxo-1,6-dihydro-pyrimidin-4-yl]-2-fluoro-benzonitrile] | 100 to 1000 nM | < 100 nM |
| Cn1c(N2CCC(N)CC2)nc(-c2ccc(C#N)c(F)c2)c(-c2ccc3occc3c2)c1=O [Example 18, 4-[2-(4-amino-piperidin-1-yl)-5-benzofuran-5-yl-1-methyl-6-oxo-1,6-dihydro-pyrimidin-4-yl]-2-fluoro-benzonitrile] | < 100 nM | < 100 nM |
| Cn1c(N2CCC(N)CC2)nc(-c2ccc(C#N)c(F)c2)c(C#CC2CCCC2)c1=O [Example 14, 4-[2-(4-amino-piperidin-1-yl)-5-cyclopentylethynyl-1-methyl-6-oxo-1,6-dihydro-pyrimidin-4-yl]-2-fluoro-benzonitrile] | < 100 nM | < 100 nM |
| COc1ccc(-c2c(-c3ccc(C#N)c(F)c3)nc(N3CCC(C)(N)CC3)n(C)c2=O)cc1F [Example 32, 4-[2-(4-amino-4-methyl-piperidin-1-yl)-5-(3-fluoro-4-methoxy-phenyl)-1-methyl-6-oxo-1,6-dihydro-pyrimidin-4-yl]-2-fluoro-benzonitrile] | < 100 nM | < 100 nM |
| Cn1c(N2CCC(N)CC2)nc(-c2ccc(C#N)c(F)c2)c(-c2ccc(N3CCCC3)nc2)c1=O [Example 60, 4-[2-(4-amino-piperidin-1-yl)-1-methyl-6-oxo-5-(6-pyrrolidin-1-yl-pyridin-3-yl)-1,6-dihydro-pyrimidin-4-yl]-2-fluoro-benzonitrile] | < 100 nM | < 100 nM |
| COc1ccc(-c2c(-c3ccc(C#N)c(F)c3)nc(N(C)C[C@@H]3CCNC3)n(C)c2=O)cc1 (stereo in doubt) [Example 56, 2-fluoro-4-[5-(4-methoxy-phenyl)-1-methyl-2-(methyl-pyrrolidin-3-ylmethyl-amino)-6-oxo-1,6-dihydro-pyrimidin-4-yl]-benzonitrile] | < 100 nM | < 100 nM |
| COc1ccc(-c2c(-c3ccc(C#N)c(F)c3)nc(N3CCC[C@H](N)C3)n(C)c2=O)cc1 [Example 31, 4-[2-((3S)-3-amino-piperidin-1-yl)-5-(4-methoxy-phenyl)-1-methyl-6-oxo-1,6-dihydro-pyrimidin-4-yl]-2-fluoro-benzonitrile] | < 100 nM | < 100 nM |
